Assay results from patent US20050080076A1 (Xanodyne Pharmacal, Inc., priority 2003, published 2005).

Columns and labels:
Adrenergic α2C = biological target: T1, Adrenergic α2C (Homo sapiens, UniProt P18825); assay: Receptor binding, Adrenergic α2C
T1 sequence (P18825 1-462): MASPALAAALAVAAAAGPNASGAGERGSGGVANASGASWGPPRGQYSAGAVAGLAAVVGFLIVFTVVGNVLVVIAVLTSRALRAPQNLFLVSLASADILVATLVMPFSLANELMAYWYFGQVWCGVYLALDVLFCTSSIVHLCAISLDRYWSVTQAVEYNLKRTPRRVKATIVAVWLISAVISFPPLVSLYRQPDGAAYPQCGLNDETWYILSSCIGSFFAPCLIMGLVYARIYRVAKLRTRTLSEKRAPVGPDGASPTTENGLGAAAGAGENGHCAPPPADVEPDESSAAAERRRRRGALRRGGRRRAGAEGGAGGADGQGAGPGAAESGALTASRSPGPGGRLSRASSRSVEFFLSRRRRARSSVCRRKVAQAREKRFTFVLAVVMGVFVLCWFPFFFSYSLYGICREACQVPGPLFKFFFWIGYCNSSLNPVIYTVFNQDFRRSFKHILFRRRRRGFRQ
Protocol: (§1) Receptor-ligand binding studies were performed as known to one skilled in the art. Compounds evaluated were LMP, the parent compound, the NDM LMP metabolite of LMP, and the sulfoxide metabolite of LMP. These studies verified receptor binding and affinity by the parent compound, as well as identified other potential receptors for the parent compound and its metabolites, and identified and verified receptors and receptor affinity for the metabolites.
(§2) Dopamine receptor affinity included binding to D1, D2, D3, D4, and D5 receptors. Serotonin receptor affinity included binding to 5-HT1A, 5-HT2A, 5-HT2B, 5-HT2, 5-HT5A, 5-HT6, and 5-HT7 receptors. Alpha adrenergic receptor affinity included binding to α1A, α1B, α1C, α2A, α2B, and α2C receptors. Muscarinic receptor affinity included binding to M1, M2, M3, M4, and M5 receptors. Binding to the histamine H1 receptor, the calcium ion channel receptor, and the sodium ion channel receptor were also evaluated. In each of the tables, the following abbreviations are used: LMP indicates the parent compound levomepromazine. NDM LMP indicates the N-desmethyl (N-desmethyl) metabolite. Sulfoxide indicates the sulfoxide metabolite. […] Ki (the inhibition constants of binding) indicate binding affinity.

Serotonin 5-HT1A = biological target: T2, Serotonin 5-HT1A (Homo sapiens, UniProt P08908); assay: Receptor binding, Serotonin 5-HT1A
T2 sequence (P08908 1-422): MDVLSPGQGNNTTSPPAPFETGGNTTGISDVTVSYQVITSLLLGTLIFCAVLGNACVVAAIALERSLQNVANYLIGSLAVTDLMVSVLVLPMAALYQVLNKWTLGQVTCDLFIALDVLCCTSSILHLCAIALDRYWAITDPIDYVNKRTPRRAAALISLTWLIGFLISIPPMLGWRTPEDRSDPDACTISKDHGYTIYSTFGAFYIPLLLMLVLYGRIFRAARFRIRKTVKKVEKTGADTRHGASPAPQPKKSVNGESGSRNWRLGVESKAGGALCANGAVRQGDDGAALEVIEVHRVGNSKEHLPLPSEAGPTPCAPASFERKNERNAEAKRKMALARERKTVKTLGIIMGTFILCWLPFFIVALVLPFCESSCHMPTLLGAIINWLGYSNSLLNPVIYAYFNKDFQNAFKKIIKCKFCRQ
Protocol: as §1, §2

Dopamine D4.2 = biological target: T3, Dopamine D4.2 (Homo sapiens, UniProt P21917, DEL271-302); assay: Receptor binding, Dopamine D4.2
T3 sequence (P21917 with tags, fused parts or gaps DEL271-302): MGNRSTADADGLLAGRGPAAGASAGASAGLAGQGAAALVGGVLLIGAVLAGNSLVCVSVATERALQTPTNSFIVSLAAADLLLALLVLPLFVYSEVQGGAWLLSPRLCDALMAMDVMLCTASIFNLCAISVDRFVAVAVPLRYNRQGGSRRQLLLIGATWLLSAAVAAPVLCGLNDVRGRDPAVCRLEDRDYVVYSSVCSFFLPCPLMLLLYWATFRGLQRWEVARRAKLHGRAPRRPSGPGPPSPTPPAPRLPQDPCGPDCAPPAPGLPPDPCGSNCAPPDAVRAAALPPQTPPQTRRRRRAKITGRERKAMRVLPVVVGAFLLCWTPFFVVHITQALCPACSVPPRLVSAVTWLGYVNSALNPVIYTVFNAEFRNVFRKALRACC
Protocol: as §1, §2

Muscarinic M5 = biological target: T4, Muscarinic M5 (Homo sapiens, UniProt P08912); assay: Receptor binding, Muscarinic M5
T4 sequence (P08912 1-532): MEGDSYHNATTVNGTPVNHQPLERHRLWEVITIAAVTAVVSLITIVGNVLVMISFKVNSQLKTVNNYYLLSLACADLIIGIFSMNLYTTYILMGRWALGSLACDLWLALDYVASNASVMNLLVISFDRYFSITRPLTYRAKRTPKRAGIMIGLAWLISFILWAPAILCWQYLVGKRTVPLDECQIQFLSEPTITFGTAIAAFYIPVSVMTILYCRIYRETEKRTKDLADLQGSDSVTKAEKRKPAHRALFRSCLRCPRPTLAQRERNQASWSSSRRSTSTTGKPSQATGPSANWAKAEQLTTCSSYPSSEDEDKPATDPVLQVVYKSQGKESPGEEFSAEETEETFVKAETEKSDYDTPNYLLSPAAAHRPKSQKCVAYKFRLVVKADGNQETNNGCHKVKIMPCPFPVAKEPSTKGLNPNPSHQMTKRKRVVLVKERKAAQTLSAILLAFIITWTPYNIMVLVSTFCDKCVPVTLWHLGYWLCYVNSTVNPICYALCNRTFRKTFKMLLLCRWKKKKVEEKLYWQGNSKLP
Protocol: as §1, §2

Dopamine D5 = Dopamine D5 (Homo sapiens, UniProt P21918); assay: Receptor binding, Dopamine D5
Chain of Dopamine D5 (P21918 whole entry): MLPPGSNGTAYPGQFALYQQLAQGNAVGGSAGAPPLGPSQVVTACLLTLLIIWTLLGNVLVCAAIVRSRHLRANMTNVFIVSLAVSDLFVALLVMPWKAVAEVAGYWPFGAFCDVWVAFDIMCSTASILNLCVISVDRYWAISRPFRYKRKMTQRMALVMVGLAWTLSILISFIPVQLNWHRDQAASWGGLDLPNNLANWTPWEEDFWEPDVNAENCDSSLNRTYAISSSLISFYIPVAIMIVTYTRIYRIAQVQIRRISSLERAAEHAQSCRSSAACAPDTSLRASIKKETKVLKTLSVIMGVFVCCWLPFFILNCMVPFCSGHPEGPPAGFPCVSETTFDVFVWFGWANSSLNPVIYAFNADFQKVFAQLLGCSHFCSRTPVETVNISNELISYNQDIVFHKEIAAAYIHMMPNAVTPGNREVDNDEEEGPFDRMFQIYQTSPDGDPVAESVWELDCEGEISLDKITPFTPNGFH
Protocol: as §1, §2

Serotonin 5-HT2B = Serotonin 5-HT2B (Homo sapiens, UniProt P41595); assay: Receptor binding, Serotonin 5-HT2B
Chain of Serotonin 5-HT2B (P41595 whole entry): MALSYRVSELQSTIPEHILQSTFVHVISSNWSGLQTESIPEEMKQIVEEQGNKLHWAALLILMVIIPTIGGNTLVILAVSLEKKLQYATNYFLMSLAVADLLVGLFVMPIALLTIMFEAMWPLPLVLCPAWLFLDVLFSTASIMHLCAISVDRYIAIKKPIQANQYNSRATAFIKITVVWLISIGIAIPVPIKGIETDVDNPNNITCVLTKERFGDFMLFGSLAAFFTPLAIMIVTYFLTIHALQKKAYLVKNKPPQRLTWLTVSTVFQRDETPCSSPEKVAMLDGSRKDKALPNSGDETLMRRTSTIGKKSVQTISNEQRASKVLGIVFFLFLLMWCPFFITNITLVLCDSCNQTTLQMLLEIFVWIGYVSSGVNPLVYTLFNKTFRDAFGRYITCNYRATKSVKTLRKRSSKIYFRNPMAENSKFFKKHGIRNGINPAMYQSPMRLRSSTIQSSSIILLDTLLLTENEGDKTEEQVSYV
Protocol: as §1, §2

Serotonin 5-HT7 = Serotonin 5-HT7 (Homo sapiens, UniProt P34969); assay: Receptor binding, Serotonin 5-HT7
Chain of Serotonin 5-HT7 (P34969 whole entry): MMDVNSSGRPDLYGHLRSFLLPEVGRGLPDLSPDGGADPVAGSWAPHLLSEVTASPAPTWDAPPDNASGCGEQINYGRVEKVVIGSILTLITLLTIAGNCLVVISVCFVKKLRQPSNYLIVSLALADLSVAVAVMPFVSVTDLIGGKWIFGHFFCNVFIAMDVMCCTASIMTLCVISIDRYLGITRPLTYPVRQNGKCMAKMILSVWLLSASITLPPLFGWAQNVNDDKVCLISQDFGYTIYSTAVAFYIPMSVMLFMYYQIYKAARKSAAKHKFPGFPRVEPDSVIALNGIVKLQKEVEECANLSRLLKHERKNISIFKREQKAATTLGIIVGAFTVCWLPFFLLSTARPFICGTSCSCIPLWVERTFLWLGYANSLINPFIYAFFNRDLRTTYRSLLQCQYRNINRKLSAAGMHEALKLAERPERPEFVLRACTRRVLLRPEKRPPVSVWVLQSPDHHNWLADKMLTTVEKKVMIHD
Protocol: as §1, §2

| SMILES | Ki (Adrenergic α2C) [nM] | Ki (Serotonin 5-HT1A) [nM] | Ki (Dopamine D4.2) [nM] | Ki (Muscarinic M5) [nM] | Ki (Dopamine D5) [nM] | Ki (Serotonin 5-HT2B) [nM] | Ki (Serotonin 5-HT7) [nM] |
| --- | --- | --- | --- | --- | --- | --- | --- |
| COc1ccc2c(c1)N(C[C@H](C)CN(C)C)c1ccccc1[S+]2[O-] (stereo partly drawn) [Sulfoxide, levomepromazine sulfoxide] | > 10000 | > 10000 | > 10000 | 481 | > 10000 | > 10000 | > 10000 |
| CNCC(C)CN1c2ccccc2Sc2ccc(OC)cc21 (stereo not drawn) [NDM LMP, R(+) 2-methoxy-10-2-methyl-3-monomethylaminopropyl phenothiazine] | 74 | 641 | 3110 | 60 | 243 | 27 | 18 |
| COc1ccc2c(c1)N(C[C@H](C)CN(C)C)c1ccccc1S2 [LMP, Levomepromazine] | 77 | 827 | 769 | 61 | 180 | 19 | 24 |
